Measurements: PubChem BioAssay (NCI)
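In this assay, cells in 96-well plates receive the compound at five concentrations for 48 hours. Endpoints are linearly interpolated between the surrounding concentrations. GI50 is the concentration that inhibits growth by half. TGI is the concentration that stops growth completely.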

Legend:
Test in all cases: NCI tumour cell line growth inhibition, 48 h
HCT-15 colon = tested on: HCT-15 colon
HL-60(TB) leukemia = tested on: HL-60(TB) leukemia
MALME-3M melanoma = tested on: MALME-3M melanoma
SK-MEL-2 melanoma = tested on: SK-MEL-2 melanoma
COLO 205 colon = tested on: COLO 205 colon
SF-539 CNS = tested on: SF-539 CNS
SNB-19 CNS = tested on: SNB-19 CNS
NCI-H522 lung = tested on: NCI-H522 lung
786-0 renal = tested on: 786-0 renal
SN12C renal = tested on: SN12C renal

Structure (SMILES)	TGI (HCT-15 colon)	TGI (HL-60(TB) leukemia)	TGI (MALME-3M melanoma)	TGI (SK-MEL-2 melanoma)	TGI (COLO 205 colon)	TGI (SF-539 CNS)	TGI (SNB-19 CNS)	TGI (NCI-H522 lung)	TGI (786-0 renal)	TGI (SN12C renal)	GI50 (HCT-15 colon)	GI50 (HL-60(TB) leukemia)	GI50 (MALME-3M melanoma)	GI50 (SK-MEL-2 melanoma)	GI50 (COLO 205 colon)	GI50 (SF-539 CNS)	GI50 (SNB-19 CNS)	GI50 (NCI-H522 lung)	GI50 (786-0 renal)	GI50 (SN12C renal)
CC(NC1CCC[C@H]1O)c1ccccc1 (mixture of isomers)	> 100 µM	> 100 µM	> 100 µM	> 100 µM	> 100 µM	> 100 µM	> 100 µM	> 100 µM	> 100 µM	> 100 µM										
c1ccc(-c2cc(-c3cc(-c4ccccn4)[nH]n3)n[nH]2)nc1	> 100 µM	> 100 µM	> 100 µM	> 100 µM	> 100 µM	> 100 µM	> 100 µM	> 100 µM	> 100 µM	> 100 µM										
Nc1cc(C(F)F)c(-c2nc(N3[C@@H]4CC[C@H]3COC4)nc(N3[C@@H]4CC[C@H]3COC4)n2)cn1	> 100 µM	> 100 µM	0.877 µM	4.96 µM	14.5 µM	3.02 µM	> 100 µM	> 100 µM	14.3 µM	> 100 µM	0.345 µM	2.29 µM	0.0713 µM	0.388 µM	0.329 µM	0.297 µM	0.706 µM	0.295 µM	0.306 µM	0.342 µM
NC(C(=O)O)C(N)C(=O)O (stereo not given)	> 100 µM	> 100 µM	> 100 µM	> 100 µM	> 100 µM	> 100 µM	> 100 µM	> 100 µM	> 100 µM	> 100 µM										
NC1=C(c2nc(-c3cc4ccccc4oc3=O)cs2)C(c2ccco2)c2c(c3ccccc3oc2=O)O1 (stereo not given)	> 150 µg/mL	> 150 µg/mL	> 150 µg/mL	112 µg/mL	> 150 µg/mL	> 150 µg/mL	> 150 µg/mL	> 150 µg/mL	71.3 µg/mL	> 150 µg/mL	> 150 µg/mL	> 150 µg/mL	120 µg/mL	43.6 µg/mL	> 150 µg/mL	96.9 µg/mL	53.1 µg/mL	> 150 µg/mL	20.2 µg/mL	> 150 µg/mL
CC(=O)N1c2ccccc2C23CCN4CC5=CCOC(O)C(C5CC42)C13 (stereo not given)	> 100 µM	> 100 µM	> 100 µM	> 100 µM	> 100 µM	> 100 µM	> 100 µM	> 100 µM	> 100 µM	> 100 µM										
Cc1oc2c(c1C(=O)c1ccccc1)C(=O)c1ccccc1C2=O	18.7 µM	17.1 µM	4.53 µM	9.04 µM	36.5 µM	24.7 µM	23.7 µM	5.86 µM	10.6 µM	25.2 µM										
CN(C)CCCC1(c2ccc(F)cc2)OCc2cc(-c3ccc4cc[nH]c4c3)ccc21 (stereo not given)	3.14 µM	3.77 µM	3.32 µM	4.72 µM	4.68 µM	3.23 µM	3.67 µM	4.49 µM	3.41 µM	3.56 µM	1.7 µM	1.74 µM	1.71 µM	2.19 µM	2.11 µM	1.78 µM	1.79 µM	2.07 µM	1.78 µM	1.73 µM
